Where “and” joins values, the source holds several entries; their conditions need not be identical. Identical values can stand only once. Entries after “also recorded” stand apart in the source; their conditions may differ. Counter-ions that a name gives are not always drawn. Like-named read-outs stand apart in the source and are kept apart here. Starred links: 1 amine or outer side, 2 acyl side, 3 side chain; linkers in the order of their positions; H or OH if unused. Positions of bridges follow the written chain, without caps; N, C: chain ends. Non-standard residues stand in square brackets, D forms with d. Residues, ends and D or L forms follow the SMILES beside them. Chains are numbered I, II in the order given. Actinocin(9to1) = Cc1c2oc3c(C)ccc(C(=O)[*:1])c3nc-2c(C(=O)[*:2])c(N)c1=O; NMeV = CN[C@H](C(=O)O)C(C)C; Sar = CNCC(=O)O
What was measured:
human α10 nAChRs [1] = molecular target: T1, human α10 nAChRs (Homo sapiens, UniProt Q9GZZ6); experiment: Desensitization to 15 s pulse of ACh in calcium or barium saline; assay type: cell-based; set-up: expressed in transfected cells; conditions: for peak current amplitude in response to ACh: 15 s pulse of EC50 ACh, oocytes incubated in STR (20 μM)
From the text: (§1) Similar to the results presented in Figure 2, peak ACh-evoked currents from α10 nAChRs were reduced in the presence of barium compared to calcium (Figures 10A,B). […] By contrast with α10 nAChRs, α9α10 currents were much smaller in the presence of barium compared to calcium (Figures 10C,D). Furthermore, α9α10 nAChRs desensitized more slowly than α10 nAChRs.

human α10 nAChRs [2] = molecular target: T1, human α10 nAChRs; experiment: Agonist activation of α10 nAChRs, concentration-response in oocytes; set-up: Emax: dose or concentration left out as unconfirmed
Description: For the assessment of ligand activity, the oocyte membranes were clamped at a holding potential of −70 mV and continuously perfused with saline (control solution). […] Ligands were applied in this manner for concentrations up to 1 µM.

human α10 nAChRs [3] = molecular target: T1, human α10 nAChRs; assay type: cell-based; set-up: expressed in transfected cells
human α9α10 nAChRs [4] = molecular target: T2, human α9α10 nAChRs (Homo sapiens, UniProt Q9GZZ6+Q9UGM1); experiment: Desensitization to 15 s pulse of ACh in calcium or barium saline; assay type: cell-based; conditions: for peak current amplitude in response to ACh: 15 s pulse of EC50 ACh, oocytes incubated in saline only
T2 construct: expressed in transfected cells; host or cells: Xenopus laevis oocytes co-injected with α9 and α10 cRNAs (1:1)
From the text: as §1

human α10 nAChRs [5] = molecular target: T1, human α10 nAChRs; conditions: ACh 1 mM
Description: For the assessment of ligand activity, the oocyte membranes were clamped at a holding potential of −70 mV and continuously perfused with saline (control solution). […] Ligands were applied in this manner for concentrations up to 1 µM. […] For experiments examining the desensitization kinetics of α10-containing nAChRs, sibling oocytes were injected with 25 ng of cRNA for α10 subunits or cRNA for α9 and α10 subunits (25 ng each). Actinomycin-D (1 µM) was also used in some experiments to prevent RNA transcription and inhibit the expression of endogenous chloride channels. The oocytes were incubated in actinomycin-D for 36 h prior to assessment with TEVC electrophysiology.

human α10 nAChRs [6] = molecular target: T1, human α10 nAChRs; experiment: Decay of ACh-evoked currents of ligand-incubated oocytes during saline perfusion (one-phase exponential plateau); conditions: oocytes treated 3 days with 20 μM ligand; ACh 1 mM; calculated plateau, 95% CI in parentheses
human α10 nAChRs [7] = molecular target: T1, human α10 nAChRs; experiment: cell-based; assay type: cell-based; set-up: expressed in transfected cells; conditions: for ACh response in presence of ligand, of control values: oocytes incubated with BRU (20 μM)
human α9 nAChRs = human α9 nAChRs (Homo sapiens, UniProt Q9UGM1)
[8] = test system: X. laevis oocytes injected with water
human α9α10 nAChRs [9] = molecular target: T2, human α9α10 nAChRs; experiment: cell-based
[10] = oocytes treated 3 days with 20 μM ligand, ACh 1 mM
[11] = read-out: inhibition of ACh-evoked responses

T2 sequence (Q9UGM1 26-479 limits assumed): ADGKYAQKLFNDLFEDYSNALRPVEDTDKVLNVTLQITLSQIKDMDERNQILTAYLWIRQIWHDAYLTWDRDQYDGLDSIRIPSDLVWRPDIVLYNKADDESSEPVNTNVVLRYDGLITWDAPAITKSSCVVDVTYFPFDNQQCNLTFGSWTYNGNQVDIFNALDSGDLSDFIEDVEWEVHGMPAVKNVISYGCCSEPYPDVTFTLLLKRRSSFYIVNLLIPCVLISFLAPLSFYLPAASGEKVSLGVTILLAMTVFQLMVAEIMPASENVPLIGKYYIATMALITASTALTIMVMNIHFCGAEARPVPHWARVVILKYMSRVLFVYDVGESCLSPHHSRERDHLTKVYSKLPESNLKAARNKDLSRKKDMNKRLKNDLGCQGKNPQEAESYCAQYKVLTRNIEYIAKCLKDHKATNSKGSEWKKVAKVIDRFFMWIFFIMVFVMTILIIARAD
T2 sequence (Q9GZZ6 25-450): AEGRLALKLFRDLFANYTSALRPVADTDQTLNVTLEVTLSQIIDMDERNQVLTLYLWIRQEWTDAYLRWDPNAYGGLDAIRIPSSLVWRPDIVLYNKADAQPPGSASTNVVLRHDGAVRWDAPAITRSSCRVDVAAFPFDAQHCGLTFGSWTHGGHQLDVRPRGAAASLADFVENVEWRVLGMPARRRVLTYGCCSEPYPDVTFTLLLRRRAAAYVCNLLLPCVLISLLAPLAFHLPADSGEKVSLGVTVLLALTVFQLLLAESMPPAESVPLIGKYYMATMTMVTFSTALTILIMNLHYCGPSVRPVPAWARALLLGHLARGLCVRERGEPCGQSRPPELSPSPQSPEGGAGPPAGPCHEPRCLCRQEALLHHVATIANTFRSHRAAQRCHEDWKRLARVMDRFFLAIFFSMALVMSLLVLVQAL
T1 sequence (Q9GZZ6 25-450): as above
Chain of human α9 nAChRs (Q9UGM1 26-479 limits assumed): as the sequence (Q9UGM1 26-479 limits assumed) above

For `CC(=O)OCC[N+](C)(C)C` [ACh, acetylcholine], the “peak current amplitude in response to ACh” value (“peak current amplitude” for short) (human α10 nAChRs [1]; barium) was −1,430 ± 1,424 nA, the “peak current amplitude” value (human α10 nAChRs [1]; calcium) was −1,818 ± 1,329 nA and the “current at the end of the 15 s pulse of ACh” value (human α10 nAChRs [1]; barium) was −459 ± 375 nA. For the same compound, the “current at the end of the 15 s pulse of ACh, of peak amplitude” value (“current at the end … of peak amplitude” for short) (human α10 nAChRs [1]; barium) was 35 ± 11%, the “current at the end of the 15 s pulse of ACh” value (human α10 nAChRs [1]; calcium) was −553 ± 396 nA and the “current at the end … of peak amplitude” value (human α10 nAChRs [1]; calcium) was 31 ± 6%. For the same compound, the “Hill Slope of activation curve” value (human α10 nAChRs [2]; oocytes incubated in STR (20 μM), 95% CI in parentheses) was 1.1 (0.9–1.3), the ACh-evoked current amplitude (human α10 nAChRs [3]; oocytes treated 3 days with 5 mM ligand, ACh 1 mM, ± SD) was −17 ± 11 nA and the “peak current amplitude” value (human α9α10 nAChRs [4]; barium) was −31 ± 40 nA. For the same compound, the “peak current amplitude” value (human α9α10 nAChRs [4]; calcium) was −484 ± 270 nA, the “current at the end of the 15 s pulse of ACh” value (human α9α10 nAChRs [4]; barium) was −23 ± 30 nA and the “current at the end … of peak amplitude” value (human α9α10 nAChRs [4]; barium) was 73 ± 8%. For the same compound, the “current at the end of the 15 s pulse of ACh” value (human α9α10 nAChRs [4]; calcium) was −154 ± 74 nA and the “current at the end … of peak amplitude” value (human α9α10 nAChRs [4]; calcium) was 33 ± 4%.

Compound `Cc1c2oc3c(C)ccc(C(=O)N[C@@H]4C(=O)N[C@H](C(C)C)C(=O)N5CCC[C@H]5C(=O)N(C)CC(=O)N(C)[C@@H](C(C)C)C(=O)O[C@@H]4C)c3nc-2c(C(=O)N[C@@H]2C(=O)N[C@H](C(C)C)C(=O)N3CCC[C@H]3C(=O)N(C)CC(=O)N(C)[C@@H](C(C)C)C(=O)O[C@@H]2C)c(N)c1=O` [Actino-D, actinomycin-D] (I: T[dV]P[Sar][NMeV] / II: T[dV]P[Sar][NMeV]; ester I:1-I:C, II:1-II:C; linker I:N-II:N via Actinocin(9to1)) has an ACh-evoked response amplitude (human α10 nAChRs [5]; sibling oocytes incubated with 1 µM actinomycin-D (and STR 20 μM), barium) of −164 ± 96 nA and an ACh-evoked response amplitude (human α10 nAChRs [5]; sibling oocytes incubated with 1 µM actinomycin-D (and STR 20 μM), calcium ([…])) of −186 ± 96 nA.

For `COc1cc2c(cc1OC)[C@@]13CCN4CC5=CCO[C@H]6CC(=O)N2[C@H]1[C@H]6[C@H]5C[C@H]43` [BRU, dimethoxystrychnine sulfate hydrate], the “plateau to which ACh-evoked currents decay, of initial current amplitudes” value (human α10 nAChRs [6]) was 15% and 15 (13–17) %, the “range of ACh-evoked current amplitudes” value (human α10 nAChRs [3]; [10]) was −50 to −888 nA and the ACh-evoked current amplitude (human α10 nAChRs [3]; oocytes treated 3 days with 20 μM ligand, ACh 1 mM, ± SD) was −302 ± 225 nA. The “ACh response in presence of ligand, of control values” (from here on “ACh response in presence of ligand”) (human α10 nAChRs [7]; ligand 100 nM perfused) was 87 ± 16%, the “ACh response in presence of ligand” value (human α10 nAChRs [7]; ligand 1 μM (2nd of series 100 nM through 300 μM)) was 246 ± 74% and the “ACh response in presence of ligand” value (human α10 nAChRs [7]; ligand 10 μM (3rd of series 100 nM through 300 μM)) was 371 ± 101%. The “ACh response in presence of ligand” value (human α10 nAChRs [7]; ligand 100 μM (4th of series 100 nM through 300 μM)) was 260 ± 102% and the “ACh response in presence of ligand” value (human α10 nAChRs [7]; ligand 300 μM perfused) was 168 ± 73%.

For `O=C1C[C@@H]2OCC=C3CN4CC[C@]56c7ccccc7N1[C@H]5[C@H]2[C@H]3C[C@H]46` [STR, strychnine], the “ACh-evoked current amplitude after exposure to STR” value (human α9 nAChRs; subset of choline-incubated oocytes then incubated in STR (20 μM) for 24 h, ACh 100 μM) was −2.1 ± 1.2 nA, the “plateau to which ACh-evoked currents decay, of initial current amplitudes” value (human α10 nAChRs [6]) was 74% and 74 (72–76) % and the ACh-evoked current amplitude [8] was −1.6 ± 0.7 nA. The “range of ACh-evoked current amplitudes” value (human α10 nAChRs [3]; [10]) was −76 to −2,378 nA, the “ACh-evoked currents after acute application, of control values” (human α10 nAChRs [7]) was 52 ± 13% and the IC50 (human α10 nAChRs [7]) was 20.2 µM. The “enhancement of ACh-evoked current amplitudes” value (human α10 nAChRs [7]) was 518 ± 411%, the “response to ACh after perfusion with ligand” value (human α10 nAChRs [7]) was −294 ± 149 nA and the inhibition at 20 µM (human α10 nAChRs [7]; [11]) was ~50%. The “ACh-evoked currents after acute application, of control values” (human α9α10 nAChRs [9]) was 1.0 ± 0.5%, the inhibition at 20 µM (human α9α10 nAChRs [9]; [11]) was ~99% and the ACh-evoked response amplitude (human α10 nAChRs [5]; oocytes treated 36 h with STR (20 μM), calcium replaced with equimolar barium) was −301 ± 225 nA. For the same compound, the ACh-evoked response amplitude (human α10 nAChRs [5]; oocytes treated 36 h with STR (20 μM), saline with calcium ([…])) was −373 ± 273 nA.

In the case of `C[N+](C)(C)CCO` [choline], the Emax (human α10 nAChRs [2]; read-out: maximal response, of the calculated maximal response to ACh) is reported as 4 ± 2% and the “ACh-evoked current amplitude before exposure to STR” value (human α9 nAChRs) is reported as −78 ± 44 nA.

`CN1CCC[C@H]1c1cccnc1` [nicotine, (-)-nicotine hydrogen tartrate] was tested, and the agonist-evoked currents (human α10 nAChRs [2]; concentrations up to 1 mM, oocytes incubated in STR (20 μM)) was “failed to evoke current responses; also recorded: failed to induce detectable currents”, the ACh-evoked current amplitude (human α10 nAChRs [3]) was −6.0 ± 6.2 nA and the “ACh responses in the presence of ligand” value (human α10 nAChRs [7]) was 99 ± 8%.
